From patent US7507728B2, “Halogen substituted imidazol[1,5-A][1,2,4]triazolo[1,5-D][1,4]benzodiazepine derivatives” (priority 2004, dated 2009)
Where two headings read alike, the source gives them in different places.

How the values were obtained:
[1] = target: T1, GABA A receptor α1β3γ2 (hα1) (Homo sapiens, UniProt P14867+P18507); assay: [3H]flumazenil competition binding, human GABA A α1β3γ2
T1 construct: expressed in transfected cells; host or cells: HEK293, transiently transfected; membranes
Experimental: (§1) The affinity of compounds at GABA A receptor subtypes was measured by competition for [^3H]flumazenil (85 Ci/mmol; Roche) binding to HEK293 cells expressing rat (stably transfected) or human (transiently transfected) receptors of composition α1β3γ2, α2β3γ2, α3β3γ2 and α5β3γ2.
(§2) Cell pellets were suspended in Krebs-tris buffer (4.8 mM KCl, 1.2 mM CaCl2, 1.2 mM MgCl2, 120 mM NaCl, 15 mM Tris; pH 7.5; binding assay buffer), homogenized by polytron for ca. 20 sec on ice and centrifuged for 60 min at 4° C. (50000 g; Sorvall, rotor: SM24=20000 rpm). The cell pellets were resuspended in Krebs-tris buffer and homogenized by polytron for ca. 15 sec on ice. Protein was measured (Bradford method, Bio-Rad) and aliquots of 1 mL were prepared and stored at −80° C.
(§3) Radioligand binding assays were carried out in a volume of 200 μL (96-well plates) which contained 100 μL of cell memebranes, [^3H]flumazenil at a concentration of 1 nM for α1, α2, α3 subunits and 0.5 nM for α5 subunits and the test compound in the range of 10^−10−3×10^−6 M. Nonspecific binding was defined by 10^−5 M diazepam and typically represented less than 5% of the total binding. Assays were incubated to equilibrium for 1 hour at 4° C. and harvested onto GF/C uni-filters (Packard) by filtration using a Packard harvester and washing with ice-cold wash buffer (50 mM Tris; pH 7.5). After drying, filter-retained radioactivity was detected by liquid scintillation counting. Ki values were calculated using Excel-Fit (Microsoft) and are the means of two determinations.

[2] = target: T2, GABA A receptor α2β3γ2 (hα2) (Homo sapiens, UniProt P18507+P47869); assay: [3H]flumazenil competition binding, human GABA A α2β3γ2
T2 construct: expressed in transfected cells; host or cells: HEK293, transiently transfected; membranes
Experimental: as §1, §2, §3

[3] = target: T3, GABA A receptor α3β3γ2 (hα3) (Homo sapiens, UniProt P18507+P34903); assay: [3H]flumazenil competition binding, human GABA A α3β3γ2
T3 construct: expressed in transfected cells; host or cells: HEK293, transiently transfected; membranes
Experimental: as §1, §2, §3

[4] = target: T4, GABA A receptor α5β3γ2 (hα5) (Homo sapiens, UniProt P18507+P31644); assay: [3H]flumazenil competition binding, human GABA A α5β3γ2
T4 construct: expressed in transfected cells; host or cells: HEK293, transiently transfected; membranes
Experimental: as §1, §2, §3

[5] = HEK293 cells transiently transfected, 1 nM [3H]flumazenil, mean of two determinations, read-out: Ki[nM] hα1
[6] = HEK293 cells transiently transfected, 1 nM [3H]flumazenil, mean of two determinations, read-out: Ki[nM] hα2
[7] = HEK293 cells transiently transfected, 1 nM [3H]flumazenil, mean of two determinations, read-out: Ki[nM] hα3
[8] = HEK293 cells transiently transfected, 0.5 nM [3H]flumazenil, mean of two determinations, read-out: Ki[nM] hα5

Compound	Ki [1, 5] [nM]	Ki [2, 6] [nM]	Ki [3, 7] [nM]	Ki [4, 8] [nM]	Ki [2] [nM]	Ki [3] [nM]	Ki [1] [nM]	Ki [4] [nM]
CCCc1ccc2c(c1)-c1ncnn1Cc1c(Cl)ncn1-2 [Example 64, 10-Chloro-3-propyl-9H-imidazo[1,5-a][1,2,4]triazolo[1,5-d][1,4]benzodiazepine]	58.8	136	187	7				
COC(=O)c1ccc2c(c1)-c1ncnn1Cc1c(Cl)ncn1-2 [Example 69, 10-Chloro-3-(methoxy-carbonyl)-9H-imidazo[1,5-a][1,2,4]triazolo[1,5-d][1,4]benzodiazepine]	7.5			1	11.6	7.5		
Clc1ncn2c1Cn1ncnc1-c1cc(-c3cccnc3)ccc1-2 [Example 57, 10-Chloro-3-(pyridin-3-yl)-9H-imidazo[1,5-a][1,2,4]triazolo[1,5-d][1,4]benzodiazepine]	9.4			6.7	33.9	21.7		
FC(F)c1ccc2c(c1)-c1ncnn1Cc1c(Cl)ncn1-2 [Example 32, 10-Chloro-3-difluoromethyl-9H-imidazo[1,5-a][1,2,4]triazolo[1,5-d][1,4]benzodiazepine]	20.5			1.1	40.1	16		
FC(F)COc1ccc2c(c1)-c1ncnn1Cc1c(Cl)ncn1-2 [Example 8, 10-Chloro-3-(2,2-difluoro-ethoxy)-9H-imidazo[1,5-a][1,2,4]triazolo[1,5-d][1,4]benzodiazepine]	22.1			2	29.4	24.4		
Clc1ncn2c1Cn1ncnc1-c1cc(NC3CC3)ccc1-2 [Example 72, 10-chloro-3-cyclopropylamino-9H-imidazo[1,5-a][1,2,4]triazolo[1,5-d][1,4]benzodiazepine]	21			2.2	93.7	78.8		
Clc1ncn2c1Cn1ncnc1-c1cc(C3CC3)ccc1-2 [Example 30, 10-Chloro-3-cyclopropyl-9H-imidazo[1,5-a][1,2,4]triazolo[1,5-d][1,4]benzodiazepine]	28.7			1.2	18.7	20.4		
Clc1ncn2c1Cn1ncnc1-c1ccccc1-2 [Example 1, 10-Chloro-9H-imidazo[1,5-a][1,2,4]triazolo[1,5-d][1,4]benzodiazepine]	3.8			0.3	1.5	0.7		
O=C(Nc1ccc2c(c1)-c1ncnn1Cc1c(Cl)ncn1-2)C1CC1 [Example 50, 3-(Cyclopropanecarbonyl-amino)-10-chloro-9H-imidazo[1,5-a][1,2,4]triazolo[1,5-d][1,4]benzodiazepine]				15.8				
C=COc1ccc2c(c1)-c1ncnn1Cc1c(Cl)ncn1-2 [Example 10, 10-Chloro-3-vinyloxy-9H-imidazo[1,5-a][1,2,4]triazolo[1,5-d][1,4]benzodiazepine]	22.4			1.2	25.6	11.4		
C=Cc1ccc2c(c1)-c1ncnn1Cc1c(Cl)ncn1-2 [Example 66, 10-Chloro-3-vinyl-9H-imidazo[1,5-a][1,2,4]triazolo[1,5-d][1,4]benzodiazepine]	20.6	17.5	16.8	1.4				
C=C=Cc1ccc2c(c1)-c1ncnn1Cc1c(Cl)ncn1-2 [Example 70, 10-Chloro-3-(propa-1,2-dienyl)-9H-imidazo[1,5-a][1,2,4]triazolo[1,5-d][1,4]benzodiazepine]	26.9			3.2	30.3	30.7		
Fc1ccc2c(c1)-c1ncnn1Cc1c(Cl)ncn1-2 [Example 2, 10-Chloro-3-fluoro-9H-imidazo[1,5-a][1,2,4]triazolo[1,5-d][1,4]benzodiazepine]	0.7			0.3	1.2	0.78		
Clc1ccc2c(c1)-c1ncnn1Cc1c(I)ncn1-2 [Example 48, 3-Chloro-10-iodo-9H-imidazo[1,5-a][1,2,4]triazolo[1,5-d][1,4]benzodiazepine]	9.2			1.4	14.7	11.3		
CCCCc1ccc2c(c1)-c1ncnn1Cc1c(Cl)ncn1-2 [Example 65, 3-Butyl-10-chloro-9H-imidazo[1,5-a][1,2,4]triazolo[1,5-d][1,4]benzodiazepine]		106	115				39.2	9.6
Brc1ncn2c1Cn1ncnc1-c1ccccc1-2 [Example 46, 10-Bromo-9H-imidazo[1,5-a][1,2,4]triazolo[1,5-d][1,4]benzodiazepine]	2.4			0.2	0.8	0.6		
Fc1ccc2c(c1)-c1ncnn1Cc1c(Br)ncn1-2 [Example 47, 10-Bromo-3-fluoro-9H-imidazo[1,5-a][1,2,4]triazolo[1,5-d][1,4]benzodiazepine]	2.1			0.5	3.7	3.9		
Cc1ccc2c(c1)-c1ncnn1Cc1c(Cl)ncn1-2 [Example 22, 10-Chloro-3-methyl-9H-imidazo[1,5-a][1,2,4]triazolo[1,5-d][1,4]benzodiazepine]	19.6			1.8	40.5	21.4		
Clc1ncn2c1Cn1ncnc1-c1cc(Br)ccc1-2 [Example 21, 3-Bromo-10-chloro-9H-imidazo[1,5-a][1,2,4]triazolo[1,5-d][1,4]benzodiazepine]	33	24.1	8.8	1.4				
CNc1ccc2c(c1)-c1ncnn1Cc1c(Cl)ncn1-2 [Example 12, 10-Chloro-3-methylamino-9H-imidazo[1,5-a][1,2,4]triazolo[1,5-d][1,4]benzodiazepine]	5.9			1.8	15.7	8		
FCCOc1ccc2c(c1)-c1ncnn1Cc1c(Cl)ncn1-2 [Example 7, 10-Chloro-3-(2-fluoro-ethoxy)-9H-imidazo[1,5-a][1,2,4]triazolo[1,5-d][1,4]benzodiazepine]	18.5			1.3	25	20.7		
COc1ccc2c(c1)-c1ncnn1Cc1c(Cl)ncn1-2 [Example 3, 10-Chloro-3-methoxy-9H-imidazo[1,5-a][1,2,4]triazolo[1,5-d][1,4]benzodiazepine]	12.2			0.8	17.2	11.7		
